Results taken from PubChem BioAssay AID330 (DTP/NCI, 2004).
Values joined by “and” are separate entries in the source; they are usually repeats but may differ in a detail not shown here. Equal entries are not always repeated. Inconclusive results and toxic doses are left out. Rule for the calls: active = survival T/C of 150% or more; inactive = T/C below 125% in these data.

Test system: P388 leukemia ip, CD2F1 mice, survival T/C
Assay: NCI In Vivo Anticancer Drug Screen. Data for tumor model P388 Leukemia (intraperitoneal) in CD2F1 (CDF1) mice
Settings: endpoint: median survival time, higher = longer survival
Method in brief: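 Mice carrying the transplanted tumor received test compound or vehicle. Survival was recorded in each group, and the value is the treated-group measurement divided by that of the vehicle-treated control group.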

[1] = dose: 100.0 mg/kg/injection, schedule: Q01DX009 (ip), vehicle: saline with Tween-80
[2] = dose: 200.0 mg/kg/injection, schedule: Q01DX009 (ip), vehicle: saline with Tween-80
[3] = dose: 50.0 mg/kg/injection, schedule: Q01DX009 (ip), vehicle: saline
[4] = dose: 100.0 mg/kg/injection, schedule: Q01DX009 (ip), vehicle: saline
[5] = dose: 200.0 mg/kg/injection, schedule: Q01DX009 (ip), vehicle: saline
[6] = dose: 12.5 mg/kg/injection, schedule: Q01DX009 (ip), vehicle: saline with Tween-80
[7] = dose: 25.0 mg/kg/injection, schedule: Q01DX009 (ip), vehicle: saline with Tween-80
[8] = dose: 50.0 mg/kg/injection, schedule: Q01DX009 (ip), vehicle: saline with Tween-80
[9] = dose: 100.0 mg/kg/injection, schedule: Q01DX001 (ip), vehicle: saline with Tween-80
[10] = dose: 400.0 mg/kg/injection, schedule: Q01DX001 (ip), vehicle: saline with Tween-80
[11] = dose: 50.0 mg/kg/injection, schedule: Q01DX005 (ip), vehicle: Klucel (hydroxypropylcellulose) (HPC)
[12] = dose: 100.0 mg/kg/injection, schedule: Q01DX005 (ip), vehicle: Klucel (hydroxypropylcellulose) (HPC)
[13] = dose: 200.0 mg/kg/injection, schedule: Q01DX005 (ip), vehicle: Klucel (hydroxypropylcellulose) (HPC)
[14] = dose: 100.0 mg/kg/injection, schedule: Q04DX003 (ip), vehicle: saline with Tween-80
[15] = dose: 60.0 mg/kg/injection, schedule: Q01DX005 (ip), vehicle: Klucel (hydroxypropylcellulose) (HPC)
[16] = dose: 120.0 mg/kg/injection, schedule: Q01DX005 (ip), vehicle: Klucel (hydroxypropylcellulose) (HPC)
[17] = dose: 240.0 mg/kg/injection, schedule: Q01DX005 (ip), vehicle: Klucel (hydroxypropylcellulose) (HPC)

Measured: T/C

CN(C)S(=O)(=O)c1ncnc2nc[nH]c12
inactive: [1] 90 % of control | dose: 100.0 mg/kg/injection, schedule: Q04DX003 (ip), vehicle: saline sonified 100 % of control | [2] 90 % of control | dose: 200.0 mg/kg/injection, schedule: Q04DX003 (ip), vehicle: saline sonified 91 % of control | dose: 400.0 mg/kg/injection, schedule: Q01DX009 (ip), vehicle: saline with Tween-80 100 % of control | dose: 400.0 mg/kg/injection, schedule: Q04DX003 (ip), vehicle: saline sonified 91 % of control

O=c1cc[nH]c(=S)[nH]1.[Pd]
inactive: dose: 25.0 mg/kg/injection, schedule: Q01DX009 (ip), vehicle: saline 89 % of control | [3] 96 % of control | [4] 91 % of control | [5] 91 % of control

CCCCCCC[n+]1cccc(C(=O)N2CCOCC2)c1
inactive: [6] 104 % of control | [7] 98 % of control | [8] 100 % of control

Fc1cccc(CSC(=S)Nc2ccc(Cl)c(C(F)(F)F)c2)c1
inactive: dose: 50.0 mg/kg/injection, schedule: Q01DX009 (ip), vehicle: suspension in saline 98 % of control | dose: 100.0 mg/kg/injection, schedule: Q01DX009 (ip), vehicle: suspension in saline 93 % of control | dose: 200.0 mg/kg/injection, schedule: Q01DX009 (ip), vehicle: suspension in saline 98 % of control

Clc1ccc2c(c1)CN1Cc3cc(Cl)ccc3C2C1
inactive: [9] 92 % of control | [10] 90 % of control

COc1ccc(Cc2noc(=O)[nH]2)cc1
inactive: [8] 104 % of control | [1] 104 % of control | [2] 106 % of control

COC(=O)C1=C(c2ccccc2)ON2C(C)(C)COC12C (stereo not drawn)
inactive: [11] 106 % of control | [12] 106 % of control | [13] 100 % of control

Oc1c(Br)cc(Br)cc1C1CCCCC1
inactive: [7] 110 % of control | [8] 119 % of control | [1] 107 % of control | [2] 113 % of control

COC(=O)C1(CC(=O)c2ccc(OC)cc2)NC(=S)NC(=O)C1C#N (stereo not drawn)
inactive: dose: 60.0 mg/kg/injection, schedule: Q01DX005 (ip), vehicle: saline 100 % of control | dose: 120.0 mg/kg/injection, schedule: Q01DX005 (ip), vehicle: saline 98 % of control | dose: 240.0 mg/kg/injection, schedule: Q01DX005 (ip), vehicle: saline 86 % of control

C=C(C)COC(=O)C1C2CC(C3OC23)C1C(=O)OCC(=C)C (stereo not drawn)
inactive: [11] 102 % of control | [12] 104 % of control | [13] 100 % of control

CCN(CC)Cc1cc2[nH]c3c4ccc(Cl)cc4ncc3c2cc1OC
inactive: dose: 6.25 mg/kg/injection, schedule: Q01DX009 (ip), vehicle: saline with Tween-80 101 % of control | [6] 100 % of control | [7] 98 % of control | dose: 50.0 mg/kg/injection, schedule: Q01DX005 (ip), vehicle: saline with Tween-80 112 % of control | [8] 87 % of control and 94 % of control | dose: 100.0 mg/kg/injection, schedule: Q01DX005 (ip), vehicle: saline with Tween-80 102 % of control

CCOc1ccc(/C=N/Nc2ccc([N+](=O)[O-])cc2)cc1OC
inactive: [14] 95 % of control | dose: 200.0 mg/kg/injection, schedule: Q04DX003 (ip), vehicle: saline with Tween-80 90 % of control | dose: 400.0 mg/kg/injection, schedule: Q04DX003 (ip), vehicle: saline with Tween-80 90 % of control

O=C(CC(O)(C(F)(F)F)C(F)(F)F)c1cccs1
inactive: dose: 50.0 mg/kg/injection, schedule: Q04DX003 (ip), vehicle: saline with Tween-80 116 % of control | [14] 100 % of control

CC1(C)CC(=O)C(C(c2ccc3c(c2)OCO3)N2CCOCC2)C(=O)C1 (stereo not drawn)
inactive: [15] 117 % of control | [16] 109 % of control

CC(=O)Oc1ccc2c(c1)c1c(OC(C)=O)c(N(C)C(C)=O)cc(OC(C)=O)c1n2C
inactive: [3] 100 % of control | [4] 86 % of control | [5] 100 % of control

Nc1nc(=O)cnn1C1OC(CO)C(O)C1O (stereo not drawn)
inactive: [9] 98 % of control | dose: 200.0 mg/kg/injection, schedule: Q01DX001 (ip), vehicle: saline with Tween-80 97 % of control | [10] 103 % of control

OCCCOc1ccc(OCCCO)cc1
inactive: [15] 100 % of control | [16] 99 % of control | [17] 103 % of control

O=[N+]([O-])c1ccc(/C=C/C=C/c2ccc(Cl)c(S(=O)(=O)F)c2)c(Cl)c1
inactive: dose: 100.0 mg/kg/injection, schedule: Q01DX009 (ip), vehicle: saline sonified 95 % of control | dose: 200.0 mg/kg/injection, schedule: Q01DX009 (ip), vehicle: saline sonified 95 % of control | dose: 400.0 mg/kg/injection, schedule: Q01DX009 (ip), vehicle: saline sonified 91 % of control

CCOC(=O)/C=C1/Nc2ccc([N+](=O)[O-])cc2NC1=O (tested in a mixture with another compound)
inactive: dose: 50.0 mg/kg/injection, schedule: Q01DX009 (ip), vehicle: distilled water + Tween-80 + alcohol 86 % of control | dose: 100.0 mg/kg/injection, schedule: Q01DX009 (ip), vehicle: distilled water + Tween-80 + alcohol 94 % of control | dose: 200.0 mg/kg/injection, schedule: Q01DX009 (ip), vehicle: distilled water + Tween-80 + alcohol 103 % of control

CCCCCCCCN(CCCCCCCC)/N=C/c1c2c(O)c3c(O)c(C)c4c(c3c1O)C(=O)C(C)(O/C=C/C(OC)C(C)C(OC(C)=O)C(C)C(O)C(C)C(O)C(C)/C=C/C=C(C)C(=O)N2)O4 (stereo not drawn)
inactive: [15] 95 % of control | [16] 89 % of control | [17] 92 % of control

Nc1cc(S(=O)(=O)O)cc2cc(S(=O)(=O)O)cc(O)c12
inactive: [15] 96 % of control | [16] 98 % of control | [17] 95 % of control
